According to patent publication US8518947B2, “(Heterocycle/tetrahydropyridine)-(piperazinyl)-1-alcanone and (heterocycle/dihydropyrrolidine)-(piperazinyl)-1-alcanone derivatives, and use thereof as p75 inhibitors” (Sanofi, priority 2009, dated 2013):
Where a name gives a salt, the structure may show the parent alone.

## O=C(CN1CC2CCC(C1)N2c1ncc(F)cn1)N1CC=C(c2cccc3ccsc23)CC1
  melting point: 112 to 113 °C

## Cn1nnnc1-c1ccc(N2C3CCC2CN(CC(=O)N2CC=C(c4cccc5ccoc45)CC2)C3)nc1
  melting point: 178 to 180 °C

## Cc1cc2cc(C3=CCN(C(=O)CN4CC5CCC(C4)N5c4ncc(F)cn4)CC3)ccc2s1
  melting point: 177 to 179 °C

## O=C(CN1CC2CCC(C1)N2c1ncc(F)cn1)N1CC=C(c2cccc3ccoc23)CC1
  melting point: 157 to 158 °C

## O=C(CN1CC2CCC(C1)N2c1ncc(F)cn1)N1CC=C(c2ccc3c(c2)OCCO3)CC1
  melting point: 163 to 165 °C

## O=C(CN1CC2CCC(C1)N2c1ncc(F)cn1)N1CC=C(c2nccc3sccc23)CC1
  melting point: 167 to 168 °C

## O=C(CN1CC2CCC(C1)N2c1ncc(F)cn1)N1CC=C(c2coc3ccccc23)CC1
  melting point: 207 to 210 °C

## O=C(CN1CC2CCC(C1)N2c1ncc(F)cn1)N1CC=C(c2csc3ccccc23)CC1
  melting point: 172 to 174 °C

## COC(=O)c1ccc(N2C3CCC2CN(CC(=O)N2CC=C(c4cccc5ccoc45)CC2)C3)nc1
  melting point: 158 to 159 °C

## COC(=O)c1ccc(N2C3CCC2CN(CC(=O)N2CC=C(c4cccc5ccsc45)CC2)C3)nc1
  melting point: 153 to 154 °C

## COC(=O)c1ccc(N2C3CCC2CN(CC(=O)N2CC=C(c4ccc5sccc5c4)CC2)C3)nc1
  melting point: 150 to 151 °C

## COC(=O)c1ccc(N2C3CCC2CN(CC(=O)N2CC=C(c4nccc5sccc45)CC2)C3)nc1
  melting point: 170 to 171 °C

## COC(=O)c1ccc(N2C3CCC2CN(CC(=O)N2CC=C(c4ccc5sc(C)cc5c4)CC2)C3)nc1
  melting point: 179 to 180 °C

## O=C(O)c1ccc(N2C3CCC2CN(CC(=O)N2CC=C(c4nccc5sccc45)CC2)C3)nc1
  melting point: 159 to 160 °C

## Cc1cc2cc(C3=CCN(C(=O)CN4CC5CCC(C4)N5c4ccc(C(=O)O)cn4)CC3)ccc2s1
  melting point: 160 to 161 °C

## COC(=O)c1ccc(N2C3CCC2CN(CC(=O)N2CC=C(c4cccc5ccoc45)C2)C3)nc1
  melting point: 169 to 170 °C

## COC(=O)c1ccc(N2C3CCC2CN(CC(=O)N2CC=C(c4cccc5ccsc45)C2)C3)nc1
  melting point: 172 to 173 °C

## O=C(O)c1ccc(N2C3CCC2CN(CC(=O)N2CC=C(c4cccc5ccoc45)C2)C3)nc1
  melting point: 188 to 189 °C

## O=C(O)c1ccc(N2C3CCC2CN(CC(=O)N2CC=C(c4cccc5ccsc45)C2)C3)nc1
  melting point: 189 to 190 °C

## COC(=O)c1ccc(N2C3CCC2CN(CC(=O)N2CC=C(c4ccc5c(c4)OCCO5)CC2)C3)nc1
  melting point: 172 to 174 °C

## O=C(CN1CC2CCC(C1)N2c1ccc(-c2noc(=O)[nH]2)cn1)N1CC=C(c2cccc3ccoc23)CC1
  melting point: 230 to 232 °C

## Cc1cc2cc(C3=CCN(C(=O)CN4CC5CCC(C4)N5c4ccc(C#N)cn4)CC3)ccc2s1
  melting point: 171 to 172 °C

## O=C(CN1CC2CCC(C1)N2c1cccnc1)N1CC=C(c2cccc3ccoc23)CC1
  melting point: 121 to 123 °C

## N#Cc1ccc(N2C3CCC2CN(CC(=O)N2CC=C(c4cccc5ccoc45)CC2)C3)nc1
  melting point: 184 to 185 °C

## Cc1cc2cc(C3=CCN(C(=O)CN4CC5CCC(C4)N5c4ccc(C(=O)OC5CCC5)cn4)CC3)ccc2s1
  melting point: 153 to 154 °C

## C[C@@H]1CN(c2ccc3ccccc3n2)C[C@H](C)N1CC(=O)N1CC=C(c2cccc3ccsc23)CC1 (as salt: HCl) [Compound 19, 1-(4-benzo[b]thiophen-7-yl-3,6-dihydro-2H-pyridin-1-yl)-2-((2S,6R)-2,6-dimethyl-4-quinolin-2-ylpiperazin-1-yl)ethanone]
  melting point: 192 to 193 °C

## C[C@@H]1CN(c2ncc(F)cn2)C[C@H](C)N1CC(=O)N1CC=C(c2cccc3ccoc23)CC1 (as salt: HCl) [Compound 36, 1-(4-benzofuran-7-yl-3,6-dihydro-2H-pyridin-1-yl)-2-[(2S,6R)-4-(5-fluoropyrimidin-2-yl)-2,6-dimethylpiperazin-1-yl]ethanone]
  melting point: 174 to 175 °C

## C[C@@H]1CN(c2ccc(C(F)(F)F)nc2)C[C@H](C)N1CC(=O)N1CC=C(c2cccc3ccsc23)CC1 (as salt: HCl) [Compound 54, 1-(4-benzo[b]thiophen-7-yl-3,6-dihydro-2H-pyridin-1-yl)-2-[(2S,6R)-2,6-dimethyl-4-(6-trifluoromethylpyridin-3-yl)piperazin-1-yl)ethanone]
  melting point: 225 to 226 °C

## COC(=O)c1ccc(N2C[C@@H](C)N(CC(=O)N3CC=C(c4cccc5ccsc45)CC3)[C@@H](C)C2)nc1 (as salt: HCl) [Compound 58, Methyl 6-{(3S,5R)-4-[2-(4-benzo[b]thiophen-7-yl-3,6-dihydro-2H-pyridin-1-yl)-2-oxoethyl]-3,5-dimethylpiperazin-1-yl}nicotinate]
  melting point: 208 to 210 °C

## COC(=O)c1cc2cccc(C3=CCN(C(=O)CN4[C@H](C)CN(c5ccc(C(F)(F)F)cn5)C[C@@H]4C)CC3)c2s1 (as salt: HCl) [Compound 66, Methyl 7-(1-{2-[(2S,6R)-2,6-dimethyl-4-(5-trifluoromethylpyridin-2-yl)piperazin-1-yl]acetyl}-1,2,3,6-tetrahydropyridin-4-yl)benzo[b]thiophene-2-carboxylate]
  melting point: 138 to 141 °C

## O=C(CN1CC2CCC(C1)N2c1ncc(F)cn1)N1CC=C(c2c[nH]c3cc(F)ccc23)CC1 (as salt: oxalate)
  melting point: 95 to 96 °C

## C[C@@H]1CN(c2ncc(F)cn2)C[C@H](C)N1CC(=O)N1CC=C(c2ccc3c(c2)OCCO3)CC1 (as salt: oxalate) [Compound 44, 1-[4-(2,3-dihydrobenzo[1,4]dioxin-6-yl)-3,6-dihydro-2H-pyridin-1-yl]-2-[(2S,6R)-4-(5-fluoropyrimidin-2-yl)-2,6-dimethylpiperazin-1-yl]ethanone]
  melting point: 90 to 91 °C

## O=C(CN1CCCN(c2cccnc2)CC1)N1CC=C(c2cccc3ccoc23)CC1 (as salt: oxalate) [Compound 78, 1-(4-benzofuran-7-yl-3,6-dihydro-2H-pyridin-1-yl)-2-(4-pyridin-3-yl-[1,4]diazepan-1-yl)ethanone]
  melting point: 100 to 101 °C

## O=C(CN1CCN(c2ccnc3cc(Cl)ccc23)CC1)N1CC=C(c2cccc3ccoc23)CC1 (as salt: oxalate) [Compound 99, 1-(4-benzofuran-7-yl-3,6-dihydro-2H-pyridin-1-yl)-2-[4-(7-chloroquinolin-4-yl)piperazin-1-yl]ethanone]
  melting point: 99 to 100 °C

## C[C@@H]1CN(c2ccc(-c3nccs3)cn2)C[C@H](C)N1CC(=O)N1CC=C(c2cccc3ccoc23)CC1 (as salt: oxalate) [Compound 119, 1-(4-benzofuran-7-yl-3,6-dihydro-2H-pyridin-1-yl)-2-[(2S,6R)-2,6-dimethyl-4-(5-thiazol-2-ylpyridin-2-yl)piperazin-1-yl]ethanone]
  melting point: 140 to 145 °C

## C[C@@H]1CN(c2ccc(-c3nnn(C)n3)cn2)C[C@H](C)N1CC(=O)N1CC=C(c2cccc3ccoc23)CC1 (as salt: oxalate) [Compound 120, 1-(4-benzofuran-7-yl-3,6-dihydro-2H-pyridin-1-yl)-2-{(2S,6R)-2,6-dimethyl-4-[5-(2-methyl-2H-tetrazol-5-yl)pyridin-2-yl]piperazin-1-yl}ethanone]
  melting point: 165 to 170 °C

## O=C(O)c1ccc(N2C3CCC2CN(CC(=O)N2CC=C(c4cccc5ccsc45)CC2)C3)nc1 [71]
  melting point: 121 to 122 °C

## O=C(O)c1ccc(N2C3CCC2CN(CC(=O)N2CC=C(c4cccc5ccsc45)CC2)C3)nc1 [85]
  melting point: 191 to 192 °C

## O=C(CN1CCN(c2ccc(C(F)(F)F)cn2)CC1)N1CC=C(c2ccc3c(c2)OCCO3)CC1 [Compound 21, 1-[4-(2,3-dihydrobenzo[1,4]dioxin-6-yl)-3,6-dihydro-2H-pyridin-1-yl]-2-[4-(5-trifluoromethylpyridin-2-yl)piperazin-1-yl]ethanone]
  melting point: 142 to 143 °C

## O=C(CN1CCN(c2ccc(C(F)(F)F)cn2)C(=O)C1)N1CC=C(c2c[nH]c3ccccc23)CC1 [Compound 30, 4-{2-[4-(1H-indol-3-yl)-3,6-dihydro-2H-pyridin-1-yl]-2-oxoethyl}-1-(5-trifluoromethylpyridin-2-yl)piperazin-2-one]
  melting point: 230 to 233 °C

## O=C(CN1CCN(c2ccc(C(F)(F)F)cn2)C(=O)C1)N1CC=C(c2cccc3ccsc23)CC1 [Compound 31, 4-[2-(4-benzo[b]thiophen-7-yl-3,6-dihydro-2H-pyridin-1-yl)-2-oxoethyl]-1-(5-trifluoromethylpyridin-2-yl)piperazin-2-one]
  melting point: 143 to 146 °C

## O=C(CN1CCN(c2ccc(C(F)(F)F)cn2)C(=O)C1)N1CC=C(c2cccc3ccoc23)CC1 [Compound 32, 4-[2-(4-benzofuran-7-yl-3,6-dihydro-2H-pyridin-1-yl)-2-oxoethyl]-1-(5-trifluoromethylpyridin-2-yl)piperazin-2-one]
  melting point: 151 to 152 °C

## O=C(CN1CCN(c2ccc(C(F)(F)F)cn2)CC1)N1CC=C(c2cccc3ccoc23)CC1 [Compound 33, 1-(4-benzofuran-7-yl-3,6-dihydro-2H-pyridin-1-yl)-2-[4-(5-trifluoromethylpyridin-2-yl)piperazin-1-yl]ethanone]
  melting point: 155 to 156 °C

## C[C@@H]1CN(c2cncnc2)C[C@H](C)N1CC(=O)N1CC=C(c2cccc3ccoc23)CC1 [Compound 35, 1-(4-benzofuran-7-yl-3,6-dihydro-2H-pyridin-1-yl)-2-((2S,6R)-2,6-dimethyl-4-pyrimidin-5-ylpiperazin-1-yl)ethanone]
  melting point: 142 to 143 °C

## C[C@@H]1CN(c2ccc(C(F)(F)F)nc2)C[C@H](C)N1CC(=O)N1CC=C(c2cccc3ccoc23)CC1 [Compound 37, 1-(4-benzofuran-7-yl-3,6-dihydro-2H-pyridin-1-yl)-2-[(2S,6R)-2,6-dimethyl-4-(6-trifluoromethylpyridin-3-yl)piperazin-1-yl]ethanone]
  melting point: 119 to 120 °C

## Cc1cc2cc(C3=CCN(C(=O)CN4[C@H](C)CN(c5ncc(F)cn5)C[C@@H]4C)CC3)ccc2s1 [Compound 38, 2-[(2S,6R)-4-(5-fluoropyrimidin-2-yl)-2,6-dimethylpiperazin-1-yl]-1-[4-(2-methylbenzo[b]thiophen-5-yl)-3,6-dihydro-2H-pyridin-1-yl]ethanone]
  melting point: 205 to 206 °C
